Test results published in patent publication US6462173B1, “Inhibitors of phosphoserine and phosphothreonine-proline-specific isomerases” (Max-Planck-Gesellschaft zur Forderung der, priority 1997, dated 2002).

Tests used:
[1] = tested on: MPM-2 antigens; assay: GST-Pin1 pull-down / depletion of MPM-2 antigens from HeLa cell extracts, MPM-2 immunoblotting; type: binding, human
Protocol: To detect Pin1-binding proteins, either HeLa cells were lysed in or Xenopus extracts were diluted in a buffer (buffer A) containing 50 mM Tris-HCl, pH 8.0, 200 mM NaCl, 100 mM NaF, 1 mM sodium orthovanadate, 10% glycerol, 1% Triton X100, 10 μg/ml aprotinin, 50 μg/ml phenylmethylsulfonyl fluoride and 1 mM DTT. The lysates were preclarified with boiled S. aureus bacteria (CalBiochem) and then incubated with 10 μl of agarose beads containing various GST-Pin1 proteins or control GST for 2 h at 4° C. The precipitated proteins were washed 5 times in the same buffer and subjected to immunoblotting analysis. Immunoprecipitation and immunoblotting analysis using MPM-2 antibody (Davis et al. 1983), which was kindly provided by J. Kuang, Pin1 antibodies (Lu et al., 1996, kindly provided by M. White or newly generated), anti-phospho.Tyr antibody (UBI), anti-Cdc25C (Ogg, et al., 1994) (from H. Piwnica-Worms and Santa Cruz Biotechnology), anti-Cdc27, anti-Plk1 (Zymed), anti-Cdc2 (Solomon, M. J., M. Glotzer, T. H. Lee, M. Philippe and M. W. Kirschner. Cell 63:1013-1024 (1991), anti-human Myt1, anti-human cyclin B1 and anti-Xenopus cyclin B were performed, as described previously in Lu and Hunter, 1995; Lu et al., 1996).
To determine whether GST-Pin1 can deplete MPM-2 antigens and to estimate what concentrations of Pin1 are required to completely deplete MPM-2 antigens, mitotic extracts were incubated with different amounts of GST-Pin1, followed by analyzing MPM-2 antigens remaining in the depleted supernatants. The total cellular Pin1 concentration in HeLa cells was estimated to be about 0.5 μM, based on immunoblotting analysis using anti-Pin1 antibodies with recombinant Pin1 protein as a standard.
To determine if the Pin1 mutants interact with mitotic phosphoproteins, GST-Pin1, -Pin1^R68,69A and -Pin1^H59A fusion proteins were incubated with interphase or mitotic HeLa cell extracts and associated proteins subjected to MPM-2 immunoblotting analysis. […] A few proteins including the most strongly reacting p55 band could still be recognized. […] Thus, mutating the residues that are implicated in binding either the substrate's putative phosphate group or the substrate's Pro residue abolish the ability of Pin1 to bind MPM-2 antigens.

[2] = tested on: Xenopus egg extracts; assay: Entry into mitosis in Xenopus CSF egg extracts; type: biochemical; settings: 10 or 40 μM, added 15 min after Ca2+
Protocol: Xenopus CSF extracts were prepared from unfertilized eggs, as previously described (Murray, 1991) and used immediately. To examine the effect of Pin1 on mitotic entry, a fresh CSF extract containing demembranated sperm (150/μl) and rhodamine tubulin (2 μg/ml) was activated by addition of 0.4 mM calcium chloride for 15 min, before the indicated concentrations of various Pin1 proteins were added and mitotic entry was followed for 2 h by nuclear morphology, nuclear envelope breakdown, spindle formation and Cdc2 activity, as described previously (Murray, A. W., Methods Cell Biol 36:581-605 (1991)). The cell cycle state of nuclei within the extracts were over 90% synchronous and typical nuclei were photographed.
To examine whether increasing the concentration of Pin1 has similar biological effects in Xenopus, Pin1 or Pin1 mutants were injected into one cell of 2 cell stage embryos and allowed the embryos to develop for 3 h (about 5 divisions). […] A similar concentration (4 μM final) of either Pin1 mutant had little effect on the cell cycle. […] In contrast, higher concentrations of the mutant proteins were needed to block the cell cycle (FIG. 1). […] In contrast, the same extracts containing 40 μM of either BSA or the mutant Pin1 proteins entered mitosis by 70 to 80 min as detected by nuclear envelope breakdown, spindle formation and high histone H1 kinase activity. […]

[3] = target: T1, cyclin B/Cdc2 (Xenopus laevis, UniProt P35567); assay: Activity of dephosphorylated-active cyclin B/Cdc2; type: biochemical; settings: same conditions as Cdc25 assay
T1 construct: from tissue; host or cells: Xenopus interphase egg extract (Cdc2); recombinant GST cyclin B added
T1 sequence (P35567 whole entry): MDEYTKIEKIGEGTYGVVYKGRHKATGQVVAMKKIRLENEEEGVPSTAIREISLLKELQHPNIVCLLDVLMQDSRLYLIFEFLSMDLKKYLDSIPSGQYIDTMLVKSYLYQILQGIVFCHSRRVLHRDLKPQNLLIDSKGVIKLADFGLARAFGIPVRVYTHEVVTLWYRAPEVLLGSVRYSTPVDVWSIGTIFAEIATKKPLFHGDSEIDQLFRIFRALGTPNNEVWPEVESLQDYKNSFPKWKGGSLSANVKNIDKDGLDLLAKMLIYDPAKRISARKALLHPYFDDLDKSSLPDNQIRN
T1 sequence (P07818 whole entry partner): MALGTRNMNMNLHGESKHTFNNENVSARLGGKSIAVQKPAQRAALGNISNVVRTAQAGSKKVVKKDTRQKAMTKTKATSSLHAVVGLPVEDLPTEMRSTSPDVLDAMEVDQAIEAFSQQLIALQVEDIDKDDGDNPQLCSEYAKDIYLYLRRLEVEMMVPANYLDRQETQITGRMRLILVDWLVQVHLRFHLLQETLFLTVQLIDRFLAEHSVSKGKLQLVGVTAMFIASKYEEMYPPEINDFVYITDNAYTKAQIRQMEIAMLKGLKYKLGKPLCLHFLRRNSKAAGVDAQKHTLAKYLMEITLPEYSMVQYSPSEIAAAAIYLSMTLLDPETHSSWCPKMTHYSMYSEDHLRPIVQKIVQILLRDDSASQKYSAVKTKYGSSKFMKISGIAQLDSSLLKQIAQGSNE
Protocol: Cdc2 was assayed using histone H1 as a substrate, as previously described in Murray, 1991; Lu and Hunter, (1995).
Therefore, we tested whether Pin1 could affect the physiological activity of Cdc25, which is to dephosphorylate and activate the cyclin B/Cdc2 complex. To generate the mitotically phosphorylated form of Cdc25, GST-Cdc25 was incubated in Xenopus mitotic extracts, affinity purified on glutathione agarose beads and eluted. […] This offers one explanation for the ability of Pin1 to inhibit mitotic entry.

Pin1: essential mitotic peptidyl-prolyl cis-trans isomerase, recombinant protein
depletion of MPM-2 antigens ([1]; 8 μM GST-Pin1, mitotic extracts): depleted the majority of MPM-2 antigens
binding of MPM-2 antigens ([1]; mitotic HeLa cell extracts, GST fusion proteins): specifically interacted with MPM-2 antigens
entry into mitosis [2]: completely blocked entry into mitosis
effect on cdc2 activity [3]: Neither Pin1 nor the Pin1 mutant had any effect on cdc2 activity
